Experimental data: US20240327392A1, “HETEROCYCLOALKYL-SUBSTITUTED POLYHETEROAZOLE DERIVATIVES AS MEDICAMENTS FOR TREATING AND/OR PREVENTING RS VIRUS INFECTIONS” (ALBIUS SCIENCES ALPHA PRIVATE LIMITED, priority 2021, published 2024)

test system: human RS virus A2 strain; assay: In vitro test for anti-RS virus proliferation inhibitory activity (quantitative RT-PCR of RS virus RNA copy number in infected Vero cells); type: cell-based; conditions: 72 h; Vero cells infected with human RS virus A2 strain, 3 days of incubation, RS virus N gene RNA copy number by quantitative RT-PCR; read-out: Anti-RS virus Activity
How it was run: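 Vero cells infected with RSV A2 (1.7×10^4 TCID50/mL in inoculum mix) with compound in 10% FCS EMEM, 3 days at 37 °C, 5% CO2. Lysate viral N-gene RNA quantified by one-step SYBR qRT-PCR; copy number by comparative Ct relative to untreated infected cells.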

Compound | IC50 [µM]
CS(=O)(=O)N1C[C@H](O)C[C@H]1c1nc(CCCc2ccccc2)no1 [Compound 3C, 3-(3-phenylpropyl)-5-[(2S,4R)-4-hydroxy-1-methanesulfonylpyrrolidin-2-yl]-1,2,4-oxadiazole] | > 50
CC(C)(C)O[C@@H]1C[C@@H](c2nc(CCCc3ccccc3)no2)N(C(=O)c2ccc3cc(C(=O)N4C[C@H](OC(C)(C)C)C[C@H]4c4nc(CCCc5ccccc5)no4)ccc3c2)C1 [Compound 4-4, Naphthalene-2,6-diylbis (((2S,4R)-4-(tert-butoxy)-2-(3-(3-phenylpropyl)-1,2,4-oxadiazol-5-yl)pyrrolidin-1-yl)methanone)] | > 50

same assay, conditions: 72 h; Vero cells infected with human RS virus A2 strain, 3 days of incubation, RS virus RNA copy number by quantitative RT-PCR; read-out: Anti-RS virus Activity

Compound | IC50 [µM]
COC(=O)c1nc([C@@H]2CCCCN2S(=O)(=O)C2CCCCC2)[nH]c1C [Compound 38B, Methyl (S)-2-(1-(cyclohexylsulfonyl)piperidin-2-yl)-5-methyl-1H-Imidazole-4-carboxylate] | 10 to 50
CC(=O)N1CCCC[C@H]1c1nc(CCCc2ccccc2)no1 [Compound 2R] | 10 to 50
CC(C)(C)OC(=O)N1CCCC[C@H]1c1noc(CCCc2ccccc2)n1 [Compound C3-16-1, Tert-butyl (S)-2-(5-(3-phenylpropyl)-1,2,4-oxadiazol-3-yl) piperidine-1-carboxylate] | < 10
O=S(=O)(N1CCOCC1)N1C[C@H](c2ccccc2)C[C@H]1c1nc(CCCc2ccccc2)no1 [Compound 7AE, 4-(((2S,4S)-4-phenyl2-(3-(3-phenylpropyl)-1,2,4-oxadiazole-5-yl)pyrrolidin-1-yl)sulfonyl) morpholine] | 10 to 50
COC(=O)N1CCC[C@H]1c1nc(CCCc2ccccc2)no1 [Compound 1K, Methyl (S)-2-(3-(3-phenylpropyl)-1,2,4-oxadiazol-5-yl) pyrrolidine-1-carboxylate] | 10 to 50
[O-][S+](N1CCCC[C@H]1c1nc(CCCc2ccccc2)no1)C12CC3CC(CC(C3)C1)C2 (stereo partly drawn) [2AF′, 5-((2S)-1-((adamantan-1-yl)sulfinyl)piperidin-2-yl)-3-(3-phenylpropyl)-1,2,4-oxadiazole] | 10 to 50
CC(C)(C)NC(=O)N1CCCC[C@H]1c1nc(CCc2ccncc2)no1 [Compound 12H, (S)—N-(tert-butyl)-2-(3-(2-(pyridin-4-yl)ethyl)-1,2,4-oxadiazol-5-yl)piperidine-1-carboxamide] | 10 to 50
CC(C)OC(=O)N1CCC[C@H]1c1nc(CCCc2ccccc2)no1 [Compound 1L, Isopropyl (S)-2-(3-(3-phenylpropyl)-1,2,4-oxadiazol-5-yl) pyrrolidine-1-carboxylate] | 10 to 50
CC(C)CS(=O)(=O)N1C[C@H](F)C[C@H]1c1nc(CCCc2ccccc2)no1 [Compound 8A, 3-(3-phenylpropyl)-5-[(2S,4R)-1-isobutylsulfonyl-4-fluoropyrrolidin-2-yl]-1,2,4-oxadiazole] | 10 to 50
CC(C)(C)OC(=O)N1CC(CS(=O)(=O)N2C[C@H](c3ccccc3)C[C@H]2c2nc(CCCc3ccccc3)no2)C1 [Compound 7AM, tert-buthyl 3-((((2S,4S)-4-phenyl2-(3-(3-phenylpropyl)-1,2,4-oxadiazole-5-yl)pyrrolidin-1-yl)sulfonyl)methyl)azetidin-1-carboxylate] | < 10
CCOC(=O)C1CCN(S(=O)(=O)N2C[C@H](c3ccccc3)C[C@H]2c2nc(CCCc3ccccc3)no2)CC1 [Compound 7AC, ethyl 1-(((2S,4S)-4-phenyl2-(3-(3-phenylpropyl)-1,2,4-oxadiazole-5-yl)pyrrolidin-1-yl)sulfonyl)piperidin-4-carboxylate] | 10 to 50
CS(=O)(=O)N1CC2(CC2)C[C@H]1c1nc(CCCc2ccccc2)no1 [Compound 5C, 3-(3-phenylpropyl)-5-{(6S)-5-methanesulfonyl-5-azaspiro[2.4]hept-6-yl}-1,2,4-oxadiazole] | > 50
CN(C)c1cccc2c(S(=O)(=O)N3C[C@H](c4ccccc4)C[C@H]3c3nc(CCCc4ccccc4)no3)cccc12 [Compound 7AL, N,N-dimethyl-5-(((2S,4S)-4-phenyl2-(3-(3-phenylpropyl)-1,2,4-oxadiazole-5-yl)pyrrolidin-1-yl)sulfonyl)naphthalen-1-amine] | < 10
Cc1oc([C@@H]2CCCCN2S(=O)(=O)C2CCCCC2)nc1C(=O)O [Compound 33B, (S)-2-(1-(Cyclohexylsulfonyl)piperidin-2-yl)-5-methyl oxazole-4-carboxylic acid] | 10 to 50
CCN1CCCC[C@H]1c1nc(CCCc2ccccc2)no1 [Compound 2Z, (S)-5-(1-ethylpiperidin-2-yl)-3-(3-phenylpropyl)-1,2,4-oxadiazole] | 10 to 50
O=S(=O)(N1CCCCC1)N1C[C@H](c2ccccc2)C[C@H]1c1nc(CCCc2ccccc2)no1 [Compound 7AD] | 10 to 50
CC(C)(C)OC(=O)N1CCCC[C@H]1c1nc(CC(=O)Nc2ccccc2)no1 [Compound 23-1, Tert-butyl (S)-2-(3-(2-oxo-2-(phenylamino)ethyl)-1,2,4-oxadiazol-5-yl)piperidine-1-carboxylate] | 10 to 50

Compound | IC50 [µM]
CCOC(=O)C1CCN(S(=O)(=O)N2CCCC[C@H]2c2nc(CCCc3ccccc3)no2)CC1 [Compound 2AC, Ethyl (S)-1-((2-(3-(3-phenylpropyl)-1,2,4-oxadiazol-5-yl)piperidin-1-yl)sulfonyl)piperidine-4-carboxylate] | 10 to 50
O=S(=O)(c1ccc(F)cc1)N1C[C@H](c2ccccc2)C[C@H]1c1nc(CCCc2ccccc2)no1 [Compound 7AJ] | < 10
CC(C)NC(=O)N1CCC[C@H]1c1nc(CCCc2ccccc2)no1 [Compound 1G, (S)—N-isopropyl-2-(3-(3-phenylpropyl)-1,2,4-oxadiazol-5-yl)pyrrolidine-1-carboxamide] | > 50
CC(C)(C)OC(=O)N1C[C@H](c2ccccc2)C[C@H]1c1nc(CCCc2ccccc2)no1 [Compound 7-1, 3-(3-phenylpropyl)-5-[(2S,4S)-1-tert-butoxycarbonyl-4-phenylpyrrolidin-2-yl]-1,2,4-oxadiazole] | < 10
CC(C)CCN1CCC[C@H]1c1nc(CCCc2ccccc2)no1 [Compound 1T, (S)-5-(1-isopentylpyrrolidin-2-yl)-3-(3-phenylpropyl)-1,2,4-oxadiazole] | < 10
COc1ccc(CCCc2noc([C@@H]3CCCCN3C(=O)OC(C)(C)C)n2)cc1OC [Compound 22-1, Tert-butyl (S)-2-(3-(3-(3,4-dimethoxyphenyl)propyl)-1,2,4-oxadiazol-5-yl)piperidine-1-carboxylate] | < 10
CC(C)(C)OC(=O)N1C[C@H](c2ccccc2)C[C@H]1c1nc(CCCCCc2ccccc2)no1 [Compound C5-7-1, Tert-butyl (2S,4S)-4-phenyl-2-(3-(5-phenylpentyl)-1,2,4-oxadiazol-5-yl)pyrrolidine-1-carboxylate] | < 10
CC(C)(C)OC(=O)N1CC(CS(=O)(=O)N2CC3(CC3)C[C@H]2c2nc(CCCc3ccccc3)no2)C1 [Compound 5AM, tert-buthyl (S)-3-(((6-(3-(3-phenylpropyl)-1,2,4-oxadiazole-5-yl)-5-azaspiro[2.4]heptan-5-yl)sulfonyl)methyl)azetidin-1-carboxylate] | < 10
O=C(NCc1ccccc1)N1[C@@H]2CC[C@@H](C2)[C@H]1c1nnc(Cc2c[nH]c3ccccc23)[nH]1 [Compound 24F, (1R,3S,4S)-3-(5-((1H-indol-3-yl)methyl)-4H-1,2,4-triazol-3-yl)-N-benzyl-2-azabicyclo[2.2.1]heptane-2-carboxamide] | 10 to 50
O=C(NCc1cnc2ccccc2c1)N1[C@@H]2CC[C@@H](C2)[C@H]1c1nnc(Cc2c[nH]c3ccccc23)[nH]1 [Compound 24AH] | 10 to 50
O=S(=O)(N1CCOCC1)N1CC2(CC2)C[C@H]1c1nc(CCCc2ccccc2)no1 [Compound 5AE, (S)-4-((6-(3-(3-phenylpropyl)-1,2,4-oxadiazole-5-yl)-5-azaspiro[2.4]heptan-5-yl)sulfonyl)morpholine] | 10 to 50
CC(C)(C)OC(=O)N1CCC(CS(=O)(=O)N2C[C@H](c3ccccc3)C[C@H]2c2nc(CCCc3ccccc3)no2)CC1 [Compound 7AN, tert-buthyl 4-((((2S,4S)-4-phenyl2-(3-(3-phenylpropyl)-1,2,4-oxadiazole-5-yl)pyrrolidin-1-yl)sulfonyl)methyl)piperidin-1-carboxylate] | < 10
CC(C)(C)OC(=O)N1[C@@H]2CC[C@@H](C2)[C@H]1c1nnc(Cc2cc3ccccc3[nH]2)[nH]1 [Compound 28-1, Tert-butyl (1R,3S,4S)-3-(5-((1H-indol-2-yl)methyl)-4H-1,2,4-triazol-3-yl)-2-azabicyclo[2.2.1]heptane-2-carboxylate] | 10 to 50
CC(C)(C)OC(=O)N1C[C@@H](C#N)C[C@H]1c1nc(CCCc2ccccc2)no1 [Compound 41-1, Tert-butyl (2S,4S)-4-cyano-2-(3-(3-phenylpropyl)-1,2,4-oxadiazol-5-yl)pyrrolidine-1-carboxylate] | 10 to 50
CN(C)c1cccc2c(S(=O)(=O)N3CC(CC4CCC4)CC3c3nc(CCCc4ccccc4)no3)cccc12 (stereo not drawn) [Compound 6AL, 5-((4-(cyclobuthylmethyl)-2-(3-(3-phenylpropyl)-1,2,4-oxadiazole-5-yl)pyrrolidin-1-yl)sulfonyl)-N,N-dimethylnaphthalen-1-amine] | < 10
CC(C)(C)[S+]([O-])N1CCCC[C@H]1c1nc(CCCc2ccccc2)no1 (single isomer, unassigned) [2W′] | 10 to 50

same assay, conditions: Vero, 72 h, read-out: Anti-RS virus Activity

Compound | IC50 [µM]
S=C(Nc1ccccc1)N1C[C@H](c2ccccc2)C[C@H]1c1nc(CCCc2ccccc2)no1 [Compound 7AQ, (2S,4S)—N,4-di phenyl-2-(3-(3-phenylpropyl)-1,2,4-oxadiazol-5-yl) pyrrolidine-1-carbothioamide] | 10 to 50
